Earlier results in patent US7332498B2, “Modulation of KSP kinesin activity with heterocyclic-fused pyrimidinone derivatives” (Cytokinetics, Inc., priority 2002, dated 2008).

Tested on: A549 cells
Details: data provided by National Cancer Institute, Developmental Therapeutic Program

| Compound | GI50 [µM] |
| --- | --- |
| O=c1[nH]cc(F)c(=O)[nH]1 [5-fluorouracil] | 1 |
| COc1cccc2c1C(=O)c1c(O)c3c(c(O)c1C2=O)C[C@@](O)(C(=O)CO)C[C@@H]3O[C@H]1C[C@H](N)[C@H](O)[C@H](C)O1 [doxorubicin] | 0.063 |
| NC(=O)NO [hydroxyurea] | 500 |
| CC(=O)O[C@H]1C(=O)[C@@]2(C)[C@H]([C@H](OC(=O)c3ccccc3)[C@]3(O)C[C@H](OC(=O)[C@H](O)[C@@H](NC(=O)c4ccccc4)c4ccccc4)C(C)=C1C3(C)C)[C@]1(OC(C)=O)CO[C@@H]1C[C@@H]2O [paclitaxel] | 0.004 |
